Literature values in patent US20200338057A1, “Methods of Treating Prostate Cancer Based on Molecular Subtypes” (Janssen Pharmaceutica NV, priority 2019, published 2020).

Legend:
[1] = test system: noncastrate hormone-sensitive and bicalutamide-resistant human prostate cancer xenograft models; settings: noncastrate hormone-sensitive and bicalutamide-resistant human prostate cancer xenografts

SMILES | Tumor response in xenograft models [1] | AR binding affinity (AR)
CNC(=O)c1ccc(N2C(=S)N(c3cnc(C#N)c(C(F)(F)F)c3)C(=O)C23CCC3)cc1F [Apalutamide, 4-[7-(6-cyano-5-trifluoromethylpyridin-3-yl)-8-oxo-6-thioxo-5,7-diazaspiro[3.4]oct-5-yl]-2-fluoro-N-methylbenzamide] | partial or complete tumor regression | 
CC(O)c1cc(C(=O)N[C@@H](C)Cn2ccc(-c3ccc(C#N)c(Cl)c3)n2)[nH]n1 (some centres unmarked) [Darolutamide, darolutamide] |  | high affinity
